We go through ten compounds from ChEMBL document CHEMBL5303304, “EUbOPEN Chemogenomics Library - IncuCyte” (2023).

Holding throughout (type): toxicity, cell-based
Data set [1] relates to HEK-293T. Briefly: Incucyte cell viability with HEK293T. The settings on record: human, 10 µM, compound concentration 10 uM.
The test system of data set [2] is Fibroblast. Briefly: Incucyte cell viability with human fibroblast. The following applies: 10 µM, compound concentration 10 uM.
Data set [3] has as its system U2OS. The experiment in a line: Incucyte cell viability with U2OS. The following applies: human, 10 µM, compound concentration 10 uM.
Also: unitless GR value; below 1 slowed growth and below 0 cell loss.

Consider `CC[C@H]1[C@@H](O)[C@@H]2[C@H](CC[C@]3(C)[C@@H]([C@H](C)CCC(=O)O)CC[C@@H]23)[C@@]2(C)CC[C@@H](O)C[C@@H]12` [OBETICHOLIC ACID], for which the “Growth Rate” value in data set [1] (0 h, replicate number 1) is on record as 0.42; in data set [1] (0 h, replicate number 2), -0.65; in data set [1] (6 h, replicate number 2), 0.83; in data set [1] (12 h, replicate number 2), 0.96; in data set [2] (6 h, replicate number 1) it was 0.39; in data set [2] (6 h, replicate number 2), 0.74. Further, the “Growth Rate” value in data set [2] (12 h, replicate number 1) is reported as 0.91; in data set [2] (12 h, replicate number 2), 0.62; in data set [2] (18 h, replicate number 1) it was 0.82; in data set [2] (18 h, replicate number 2) it was 0.87; in data set [2] (24 h, replicate number 1), 0.9; in data set [2] (24 h, replicate number 2), 0.95. The “Growth Rate” value in data set [3] (6 h, replicate number 1) was -0.88; in data set [3] (12 h, replicate number 1) it was 0.87.
Regarding `CCCCCCC(Sc1nc(Cl)cc(NCc2ccc(-c3ccccc3)cc2)n1)C(=O)O` (stereo unspecified), the “Growth Rate” value in data set [1] (0 h, replicate number 1) is listed as 0.04; in data set [2] (0 h, replicate number 2), -0.63; in data set [2] (24 h, replicate number 1), 0.91; in data set [3] (0 h, replicate number 1), 0.82; in data set [3] (12 h, replicate number 1) it was 0.89; in data set [3] (12 h, replicate number 2), 0.97. Besides, the “Growth Rate” value in data set [3] (24 h, replicate number 1) was 0.94; in data set [3] (24 h, replicate number 2), 0.96.
`CN1C(=O)Cc2ccc(-c3ccc(C[C@@H](C#N)NC(=O)[C@H]4N[C@@H]5CC[C@H]4C5)c(F)c3)cc21`: the “Growth Rate” value stood at 0.62 in data set [1] (0 h, replicate number 1); 0.89 in data set [1] (12 h, replicate number 1); 0.82 in data set [1] (12 h, replicate number 2); 0.94 in data set [1] (18 h, replicate number 1); 0.88 in data set [1] (18 h, replicate number 2); 0.87 in data set [1] (24 h, replicate number 1). Further, the “Growth Rate” value in data set [1] (24 h, replicate number 2) is reported as 0.95; in data set [2] (0 h, replicate number 1), -1; in data set [2] (6 h, replicate number 1), 0.56; in data set [2] (6 h, replicate number 2) it was -0.72; in data set [2] (12 h, replicate number 1) it was 0.65; in data set [2] (12 h, replicate number 2) it was 0.43. The “Growth Rate” value in data set [2] (18 h, replicate number 1) is reported as 0.72; in data set [2] (18 h, replicate number 2), 0.5; in data set [2] (24 h, replicate number 1), 0.86; in data set [2] (24 h, replicate number 2) it was 0.85; in data set [3] (6 h, replicate number 1), 0.49.
Consider `CC1CCN(c2ccnc(NCc3cn(C)cn3)n2)CC1` [TP-040], for which the “Growth Rate” value is listed as 0.85 in data set [1] (6 h, replicate number 2); -0.66 in data set [2] (0 h, replicate number 2); 0.15 in data set [2] (6 h, replicate number 1); 0.66 in data set [2] (6 h, replicate number 2); 0.71 in data set [2] (12 h, replicate number 1); 0.76 in data set [2] (12 h, replicate number 2). Further, the “Growth Rate” value is 0.71 in data set [2] (18 h, replicate number 1); 0.65 in data set [2] (24 h, replicate number 1); -1 in data set [3] (0 h, replicate number 1); 0.69 in data set [3] (0 h, replicate number 2); 0.76 in data set [3] (6 h, replicate number 2); 0.8 in data set [3] (12 h, replicate number 2). In addition, the “Growth Rate” value in data set [3] (18 h, replicate number 2) was 0.86; in data set [3] (24 h, replicate number 2), 0.84.
For the compound `O=C1COc2cc(C(=O)N(Cc3ccc(C(=O)Nc4ccncn4)cc3)C3CC3)ccc2N1`, the “Growth Rate” value was -0.63 in data set [1] (0 h, replicate number 2); 0.38 in data set [1] (6 h, replicate number 1); 0.01 in data set [1] (6 h, replicate number 2); 0.74 in data set [1] (12 h, replicate number 1); 0.42 in data set [1] (12 h, replicate number 2); 0.75 in data set [1] (18 h, replicate number 1). Also, the “Growth Rate” value was 0.66 in data set [1] (18 h, replicate number 2); 0.95 in data set [1] (24 h, replicate number 1); 0.72 in data set [1] (24 h, replicate number 2); 0.36 in data set [2] (6 h, replicate number 1); 0.55 in data set [2] (6 h, replicate number 2); 0.28 in data set [2] (12 h, replicate number 1). The “Growth Rate” value in data set [2] (12 h, replicate number 2) is 0.88; in data set [2] (18 h, replicate number 1) it was 0.54; in data set [2] (18 h, replicate number 2) it was 0.79; in data set [2] (24 h, replicate number 1), 0.74; in data set [2] (24 h, replicate number 2), 0.98; in data set [3] (0 h, replicate number 1), -0.53. Further, the “Growth Rate” value in data set [3] (0 h, replicate number 2) worked out at 0.72; in data set [3] (6 h, replicate number 1), 0.39; in data set [3] (6 h, replicate number 2) it was 0.77; in data set [3] (12 h, replicate number 1) it was 0.37; in data set [3] (12 h, replicate number 2) it was 0.8; in data set [3] (18 h, replicate number 1), 0.61. Besides, the “Growth Rate” value worked out at 0.77 in data set [3] (18 h, replicate number 2); 0.73 in data set [3] (24 h, replicate number 1); 0.87 in data set [3] (24 h, replicate number 2).
With `Cl.Cl.c1ccc2c(-c3cnn4cc(-c5ccc(N6CCNCC6)cc5)cnc34)ccnc2c1`, the “Growth Rate” value in data set [1] (0 h, replicate number 1) is reported as -0.16; in data set [1] (6 h, replicate number 2), -0.92; in data set [1] (12 h, replicate number 2), -0.66; in data set [1] (18 h, replicate number 2) it was -0.48; in data set [1] (24 h, replicate number 2) it was -0.38; in data set [2] (0 h, replicate number 2), -0.67. The “Growth Rate” value in data set [2] (6 h, replicate number 1) was -0.76; in data set [2] (12 h, replicate number 1), -1; in data set [3] (0 h, replicate number 1), -0.92; in data set [3] (6 h, replicate number 1), -0.9; in data set [3] (6 h, replicate number 2) it was -0.64; in data set [3] (12 h, replicate number 1) it was -0.48. Further, the “Growth Rate” value is reported as -0.46 in data set [3] (12 h, replicate number 2); -0.35 in data set [3] (18 h, replicate number 1); -0.37 in data set [3] (18 h, replicate number 2); -0.32 in data set [3] (24 h, replicate number 1).
As for `C[C@@H](c1ccc(F)cc1)n1nnc2cnc3ccc(-c4ccc5ocnc5c4)cc3c21`, the “Growth Rate” value is listed as 0.07 in data set [1] (6 h, replicate number 2); 0.99 in data set [1] (12 h, replicate number 2); 0.85 in data set [2] (0 h, replicate number 1); -0.11 in data set [2] (0 h, replicate number 2); -0.77 in data set [2] (6 h, replicate number 1); 0.8 in data set [2] (6 h, replicate number 2). Further, the “Growth Rate” value in data set [2] (12 h, replicate number 1) is given as -0.93; in data set [2] (18 h, replicate number 1) it was 0.35; in data set [2] (24 h, replicate number 1), 1; in data set [3] (0 h, replicate number 1) it was -0.74; in data set [3] (0 h, replicate number 2), 0.17; in data set [3] (18 h, replicate number 1), 0.87. The “Growth Rate” value in data set [3] (24 h, replicate number 1) was determined as 0.82.
On to `CC(C)(C)c1cc(NC(=O)c2csc(Nc3ccc(Cl)cc3)n2)no1`, for which the “Growth Rate” value in data set [1] (0 h, replicate number 1) is 0.27; in data set [1] (0 h, replicate number 2), -0.44; in data set [1] (6 h, replicate number 2), 0.84; in data set [1] (12 h, replicate number 2), 0.99; in data set [1] (18 h, replicate number 1), 0.94; in data set [1] (24 h, replicate number 1), 0.97. Further, the “Growth Rate” value in data set [2] (0 h, replicate number 1) is listed as -1; in data set [2] (6 h, replicate number 1) it was 0.89; in data set [2] (12 h, replicate number 2), 0.46; in data set [2] (18 h, replicate number 2), 0.74; in data set [2] (24 h, replicate number 1) it was 0.8; in data set [2] (24 h, replicate number 2) it was 0.87. Further, in data set [3] (24 h, replicate number 1), the “Growth Rate” value was -0.59.
Take `COc1ccc2nc3ccc(OC)cc3c(SCCCN)c2c1.Cl`: the “Growth Rate” value in data set [1] (6 h, replicate number 1) was -0.94; in data set [1] (6 h, replicate number 2), 0.26; in data set [1] (12 h, replicate number 1), -0.75; in data set [1] (12 h, replicate number 2) it was 0.76; in data set [1] (18 h, replicate number 1) it was -0.57; in data set [1] (18 h, replicate number 2) it was 0.45. The “Growth Rate” value in data set [1] (24 h, replicate number 1) was -0.41; in data set [1] (24 h, replicate number 2), 0.33; in data set [2] (0 h, replicate number 2), -0.39; in data set [2] (6 h, replicate number 1), -1; in data set [2] (24 h, replicate number 2), 0.89; in data set [3] (0 h, replicate number 2), -0.96. Further, the “Growth Rate” value in data set [3] (18 h, replicate number 2) is on record as 0.99; in data set [3] (24 h, replicate number 1), 0.86; in data set [3] (24 h, replicate number 2), 0.85.
Turning to `COCCN(C)c1ccc(NC(=O)/C=C(\C)c2ccc3ccccc3c2)c(C(=O)O)c1`, the “Growth Rate” value was 0.87 in data set [1] (0 h, replicate number 1); -0.37 in data set [1] (0 h, replicate number 2); -0.29 in data set [2] (0 h, replicate number 2); 0.79 in data set [3] (0 h, replicate number 1); 0.9 in data set [3] (6 h, replicate number 1); 0.72 in data set [3] (12 h, replicate number 1). Moreover, the “Growth Rate” value was determined as 0.92 in data set [3] (12 h, replicate number 2); 0.88 in data set [3] (18 h, replicate number 1); 0.91 in data set [3] (24 h, replicate number 1).
